# Reference: US20240327359A1, “3-ISOXAZOLIDINONE COMPOUND, PREPARATION METHOD, HERBICIDAL COMPOSITION AND APPLICATION THEREOF” (QINGDAO KINGAGROOT CHEMICAL COMPOUND CO., LTD., priority 2021, published 2024)
# Experiments:
# Assay type in all cases: in vivo
# Abutilon theophrasti = experiment: Weeding effect in post-emergence stage; conditions: 720 g a.i./ha, 3 weeks after application
# Source text: (§1) The activity level criteria for plant damage (i.e., growth control rate) are as follows:
# (§2) The above growth control rates are fresh weight control rates.
# (§3) Monocotyledonous and dicotyledonous weed seeds (Descurainia sophia, Capsella bursa-pastoris, Abutilon theophrasti, Galium aparine, Stellaria media, Lithospermum arvense, Rorippa indica, Alopecurus aequalis, Alopecurus japonicus, Eleusine indica, Beckmannia syzigachne, Sclerochloa dura, Phleum paniculatum, Veronica didyma, Bromus japonicus, Aegilops tauschii, Phalaris arundinacea, Amaranthus retroflexus, Chenopodiaceae, Commelina communis, Sonchus arvensis, Convolvulus arvensis, Cirsium setosum, Solanumnigrum, Acalypha australis, Digitaria sanguinalis, Echinochloa crusgalli, Setaria viridis, Setaria glauca, Leptochloa chinensis, Monochoria vaginalis, Sagittaria trifolia, Scirpus juncoides, Cyperus rotundus, Cyperus iria, Cyperus difformis, Fimbristylis, Portulaca oleracea, Xanthium sibiricum, Pharbitis nil, Conyza Canadensis, etc.) and major crop seeds (wheat, corn, rice, soybean, cotton, oilseed rape, millet, sorghum, potato, sesame, ricinus, etc.) were placed in plastic pots filled with soil, then covered with 0.5-2 cm of soil, allowed to grow in a good greenhouse environment. Two weeks after sowing, the test plants were treated in the 2-3 leaf stage. The tested compounds of the present invention were respectively dissolved in acetone, then added with Tween 80 and 1.5 liter/ha of emulsifiable concentrate of methyl oleate as synergist, diluted with a certain amount of water to obtain a solution of a certain concentration, and sprayed by a spray tower onto the plants. After the application, the plants were cultured for 3 weeks in the greenhouse, and then the experimental results of the weeding were recorded. The doses of the used compounds were 45, 90, 180, 360, 720 g a.i./ha, and the averages were obtained from three replicates.
# Alopecurus japonicus = experiment: Weeding effect in post-emergence stage; conditions: 720 g a.i./ha, 3 weeks after application
# Source text: as §1, §2, §3
# Digitaria sanguinalis = experiment: Weeding effect in post-emergence stage; conditions: 720 g a.i./ha, 3 weeks after application
# Source text: as §1, §2, §3
# Leptochloa chinensis [1] = experiment: Weeding effect in post-emergence stage; conditions: 720 g a.i./ha, 3 weeks after application
# Source text: as §1, §2, §3
# Descurainia sophia = experiment: Weeding effect in pre-emergence stage; conditions: 2 weeks
# Source text: as §1, §2
# (§4) Monocotyledonous and dicotyledonous weed seeds (Descurainia sophia, Capsella bursa-pastoris, Abutilon theophrasti, Galium aparine, Stellaria media, Lithospermum arvense, Rorippa indica, Alopecurus aequalis, Alopecurus japonicus, Eleusine indica, Beckmannia syzigachne, Sclerochloa dura, Phleum paniculatum, Veronica didyma, Bromus japonicus, Aegilops tauschii, Phalaris arundinacea, Amaranthus retroflexus, Chenopodiaceae, Commelina communis, Sonchus arvensis, Convolvulus arvensis, Cirsium setosum, Solanumnigrum, Acalypha australis, Digitaria sanguinalis, Echinochloa crusgalli, Setaria viridis, Setaria glauca, Leptochloa chinensis, Monochoria vaginalis, Sagittaria trifolia, Scirpus juncoides, Cyperus rotundus, Cyperus iria, Cyperus difformis, Fimbristylis, Portulaca oleracea, Xanthium sibiricum, Pharbitis nil, Conyza Canadensis, etc.) and major crop seeds (wheat, corn, rice, soybean, cotton, oilseed rape, millet, sorghum, potato, sesame, ricinus, etc.) were placed in plastic pots filled with soil, then covered with 0.5-2 cm of soil, allowed to grow in a good greenhouse environment. The test plants were treated on the day of sowing. The tested compounds of the present invention were respectively dissolved in acetone, then added with Tween 80, diluted with a certain amount of water to obtain a solution of a certain concentration, and sprayed by a spray tower onto the plants. After the application, the plants were cultured for 2 weeks in the greenhouse, and then the experimental results of the weeding were recorded. The doses of the used compounds were 3, 6, 12, 24, 48 g ai./mu (1 mu=1/15 ha), and the averages were obtained from three replicates.
# Echinochloa crusgalli = experiment: Weeding effect in pre-emergence stage; conditions: 2 weeks
# Source text: as §1, §2, §4
# Leptochloa chinensis [2] = experiment: Weeding effect in pre-emergence stage; conditions: 2 weeks
# Source text: as §1, §2, §4
# Lolium perenne = experiment: Weeding effect in pre-emergence stage; conditions: 2 weeks
# Source text: as §1, §2, §4
# Veronica didyma = experiment: Weeding effect in pre-emergence stage; conditions: 2 weeks
# Source text: as §1, §2, §4
# weeds = experiment: Activity test of the compositions, soil sealing treatment; conditions: Echinochloa crus-galli, 504 h, Echinochloa crusgalli, soil treatment (S), 21 days, read-out: Control effect (%) of B applied alone (B)
# Description: (§5) The desired active ingredient B was purchased from a reagent company or synthesized by a known method. The technical materials were all dissolved in acetone and diluted with an aqueous solution containing 0.10% emulsifier Tween-80 which were to be used immediately after dilution.
# Weeds are cultivated in a controllable sunlight greenhouse at 20 to 30° C., in natural light, and with relative humidity of 57% to 72%. […] The test soil was filled quantitatively to ¾ of the pots and then watered from the bottom of the pots to completely wet the soil to saturation. The test weed seeds were accelerated to just germinate, and then evenly and quantitatively sowed on the surface, then covered with 0.5-1 cm soil according to the seed size, and ready for use 72 hours after sowing.
# (§6) Each treatment was repeated 4 times. Four pots with 20 weed seeds per pot were treated each time.
# (§7) The well-sowed test materials were evenly placed on a platform with an area of 0.5 m^2, and solution of agents was sprayed on the soil by the 3WP-2000-type walking spray tower at a dosage of 450 kg/ha and at a spray pressure of 0.3 MPa. After all the solution was sprayed, the valve was closed. After 30 seconds, the door of the spray tower was opened, and the nutritional bowl was taken out. Then the valve was opened, and the spray tube was cleaned by spraying 50 ml of water.
# (§8) A method for investigating absolute numbers was employed. Whole seedlings of survival weeds were cut off with a blade along the soil surface, and the fresh weight of the weeds was weighed with an analytical balance. For dead weeds, the fresh weight thereof was zero.
# (§9) The investigation was performed 21 days after the treatment for only once in total.
# Cirsium setosum = experiment: Activity test of the compositions, post-emergence treatment by foliage spray; conditions: foliage (F)
# Description: as §5
# Weeds were cultivated by a pot culture method. […] Weed seeds with plump and uniform grains were selected, soaked in lukewarm water at 25° C. for 6 hours, and germinated in a 28° C. biochemical incubator (in darkness). The weed seeds that had just germinated were evenly placed on the surface of the soil and then covered with 0.5-1 cm soil according to the sizes of seeds.
# The culture was carried out in a controllable sunlight greenhouse at 20 to 30° C., in natural light, and with relative humidity of 57% to 72%.
# as §6
# The agents were used for only once in total in the experiment. In the stage of 1.5-2 leaves, the weeds were thinned out to maintain 10 weeds per pot. Ten weeds were kept in each treatment, then continued to be cultured until Echinochloa crus-galli var. zelayensis reached the stage of 2-3 leaves, Cirsium setosum reached the stage of 5-6 leaves, Galium aparine reached the stage of 3-4 whorl leaves, Amaranthus retroflexus reached the stage of 3-5 leaves, Echinochloa crusgalli, Lolium multiflorum and Digitaria sanguinalis reached the stage of 3 leaves with one leaf not fully expanding for further treatment.
# as §7, with “well-cultured” for “well-sowed”, “stems and leaves thereof” for “soil”, “water. After the treatment, the weeds were routinely cultured in a greenhouse.” for “water.”
# as §8, §9
compound,measurement,setting,value
"CC1(C)CON(Cc2ccccc2Cl)C1=O [Control compound B, clomazone]","weeding effect in post-emergence stage, activity level (growth control rate)",Abutilon theophrasti,3 (Level 3: growth control rate is greater than or equal to 40% and less than 60%)
same,"weeding effect in post-emergence stage, activity level (growth control rate)",Alopecurus japonicus,4 (Level 4: growth control rate is greater than or equal to 60% and less than 85%)
same,"weeding effect in post-emergence stage, activity level (growth control rate)",Digitaria sanguinalis,3 (Level 3: growth control rate is greater than or equal to 40% and less than 60%)
same,"weeding effect in post-emergence stage, activity level (growth control rate)",Leptochloa chinensis [1],4 (Level 4: growth control rate is greater than or equal to 60% and less than 85%)
same,"weeding effect in pre-emergence stage, activity level (growth control rate)",Descurainia sophia; 3 g a.i./mu,2 (Level 2: growth control rate is greater than or equal to 15% and less than 30%)
same,"weeding effect in pre-emergence stage, activity level (growth control rate)",Descurainia sophia; 6 g a.i./mu,3 (Level 3: growth control rate is greater than or equal to 30% and less than 40%)
same,"weeding effect in pre-emergence stage, activity level (growth control rate)",Descurainia sophia; 12 g a.i./mu,7 (Level 7: growth control rate is greater than or equal to 70% and less than 80%)
same,"weeding effect in pre-emergence stage, activity level (growth control rate)",Descurainia sophia; 24 g a.i./mu,7 (Level 7: growth control rate is greater than or equal to 70% and less than 80%)
same,"weeding effect in pre-emergence stage, activity level (growth control rate)",Echinochloa crusgalli; 3 g a.i./mu,8 (Level 8: growth control rate is greater than or equal to 80% and less than 100%)
same,"weeding effect in pre-emergence stage, activity level (growth control rate)",Echinochloa crusgalli; 6 g a.i./mu,9
same,"weeding effect in pre-emergence stage, activity level (growth control rate)",Echinochloa crusgalli; 12 g a.i./mu,9
same,"weeding effect in pre-emergence stage, activity level (growth control rate)",Echinochloa crusgalli; 24 g a.i./mu,9
same,"weeding effect in pre-emergence stage, activity level (growth control rate)",Leptochloa chinensis [2]; 3 g a.i./mu,0
same,"weeding effect in pre-emergence stage, activity level (growth control rate)",Leptochloa chinensis [2]; 6 g a.i./mu,4 (Level 4: growth control rate is greater than or equal to 40% and less than 50%)
same,"weeding effect in pre-emergence stage, activity level (growth control rate)",Leptochloa chinensis [2]; 12 g a.i./mu,9
same,"weeding effect in pre-emergence stage, activity level (growth control rate)",Leptochloa chinensis [2]; 24 g a.i./mu,9
same,"weeding effect in pre-emergence stage, activity level (growth control rate)",Lolium perenne; 6 g a.i./mu,1 (Level 1: growth control rate is greater than 0% and less than 15%)
same,"weeding effect in pre-emergence stage, activity level (growth control rate)",Lolium perenne; 24 g a.i./mu,9
same,"weeding effect in pre-emergence stage, activity level (growth control rate)",Veronica didyma; 6 g a.i./mu,8 (Level 8: growth control rate is greater than or equal to 80% and less than 100%)
same,"weeding effect in pre-emergence stage, activity level (growth control rate)",Veronica didyma; 12 g a.i./mu,9
same,"weeding effect in pre-emergence stage, activity level (growth control rate)",Veronica didyma; 24 g a.i./mu,9
same,pest or weed control at 30 g/ha,weeds; B at 2 g a.i./mu,33.2%
same,pest or weed control at 60 g/ha,weeds; B at 4 g a.i./mu,46.8%
CC(C)N1C(=O)c2ccccc2NS1(=O)=O [bentazon],Control effect (%) of B applied alone (B),Cirsium setosum; B 8 g a.i./mu,12.4%
same,Control effect (%) of B applied alone (B),Cirsium setosum; B 16 g a.i./mu,25.8%
